Columns and labels:
Assay type in all cases: cell-based
A431 cells [1] = experiment: Flow cytometry of cellular uptake of EGFP-R8 in the presence of actin inhibitors; details: for Normalised Fluoresence Intensity (EGFP-R8): mean of geometric means, three independent experiments
Experimental: A431 cells were seeded onto 12-well plates and cultured for 24 hr to be ~80% confluent on the day of experiment. Cells were washed twice with PBS and then incubated with diluent control (DMSO/dH2O) or actin inhibitors as previously described. They were then loaded with serum-free DMEM containing either 2 µM EGFP-R8, 5 µg/ml TF-647 or 0.1 mg/ml Dex-647 in the presence or absence of actin inhibitors for times stipulated in the figure legends. The plates were then placed on ice to prevent further uptake and washed 3x with either ice-cold PBS or 0.5 mg/ml heparin in PBS. To remove the plasma membrane bound TF, cells were washed 3x with ice-cold PBS followed by an incubation for 1 min in ice-cold acid wash (0.2 M acetic acid, 0.2 M NaCl, pH 2.0)[33]. All cells were then washed twice with PBS at room temperature before trypsinisation at 37 °C for 5 min before placing the detached cells in centrifuge tubes and centrifuging at 4 °C for 3 min at 800 × g. The obtained cell suspension was washed 3x with ice-cold PBS and finally resuspended in 300 µl ice-cold PBS for measurement of cell-associated fluorescence (cell gate 50,000 cells) by flow cytometry on a BD FACSVerse utilising a 488 laser and 527/32 filter for EGFP analysis and a 633 nm laser and 660/10 filter for Alexa 647. Cells were gated using FSC-A/SSC-A to isolate single cell populations and analysed using FlowJo.
Flow cytometry measurements represent the mean fluorescence from three independent experiments performed in duplicate, where each individual data point was the geometric mean. A two-tailed unpaired Students t-test was used to test for differences within experiments. Significant differences were classed as having a P value of < 0.05.

A431 cells [2] = experiment: Live cell confocal microscopy of uptake of endocytic probes and R8 conjugates, with or without actin inhibitors
Experimental: HeLa or A431 cells were seeded on 35 mm MatTek dishes (Ashland, US) at respective densities of 5 × 10^5 cells/dish and 1.0 × 10^6 cells/dish and maintained in 2.5 mL D-MEM containing 10%, 100 IU/mL penicillin and 100 µg/mL streptomycin. Cells were then allowed to adhere for 24 hr at 37 °C/5% CO2 to reach a confluence of ~80%. On the day of experimentation, they were washed with PBS and then incubated with 100 µl serum-free D-MEM (thus reducing well described serum binding effects[32]) containing either 2 µM CPP conjugate (R8-Alexa488 or EGFP-R8), 5 µg/ml transferrin-Alexa 647 (TF-647) or 0.1 mg/ml dextran (10 kDa)-Alexa 647 (Dex-647). The cells were then incubated for 1 hr (or 30 min for TF-647) at 37 °C/5% CO2 before washing 3x with PBS (TF-647 or Dex-647) or PBS 0.5 mg/mL heparin (R8-conjugates). They were then washed once with PBS, prior to the addition of 2 mL of imaging medium (phenol red free RPMI, 20 mM HEPES pH 7.4) and analysis by live cell confocal microscopy.
Cells were seeded on MatTek dishes as previously described and were washed with PBS before preincubation at 37 °C with diluent control (DMSO) or actin inhibitors: 10 µM Cyt D for 15 min; 0.1–1 µM Lat B for 30 min; 0.2–4 µM JAS for 45 min; 50–100 µM Y27632 for 4 hr in serum-free D-MEM at 37 °C/5% CO2. Endocytic probes (TF-647, Dex-647) or R8-conjugates were then incubated with the cells in the absence (control) or presence of the inhibitors and further incubated at 37 °C/5% CO2 for times specified in figure legends prior to analysis by confocal microscopy. For pulse chase experiments, A431 cells were incubated with 0.1 mg/ml Dex-647 for 2 hr (pulse) followed by washing and a further 4 hr (chase) in fresh complete growth medium. EGFP-R8 (2 µM) was then added for 1 hr in the absence or presence of 10 µM Cyt D. EGFP-R8 and Dex-647 subcellular distribution was then analysed in live cells using confocal microscopy. For low temperature experiments, cells were preincubated with Cyt D as above and then placed on ice for 2 min prior to addition of ice cold EGFP-R8. The cells were then maintained under these conditions for 1 hr prior to analysis by confocal microscopy.
Analysis was performed on a Leica SP5 confocal laser scanning microscope, equipped with laser lines: 405 Blue Diode (Excitation wavelength 405 nm for Hoechst 33342) Argon (Excitation wavelength 488 nm for Alexa 488 or EGFP), Helium Neon Laser 1 (Excitation wavelength 543 nm for Tetramethyl-Rhodamine Phalloidin (Rh-P)) and Laser 2 (Excitation wavelength 633 nm for Alexa 647 conjugates). All images presented in this study were obtained using a HCX PL APO 63x 1.4 NA oil immersion objective with Leica Type F immersion oil. Parameters “Gain” and “Off-set” of the individual photomultiplier tubes were adjusted between experiments in order to obtain optimal image acquisition avoiding saturation. For multi-channel image acquisition, the channels were scanned in a sequential recording mode to avoid spectral cross-talk caused by overlapping excitation and/or emission spectra of fluorophores. Acquisition mode “XYZ” and image resolutions (pixels/image) of 512 × 512 or 1024 × 1024 were selected and pinhole size was set to 1 Airy Unit. Depending on acquisition requirements the scan speed was set as either 400 or 700 Hz and for single section images, the same optical section was scanned 3x to generate a line average image. Captured images were then analysed using ImageJ. […]

[3] = system: actin architecture in A431 cells; experiment: Actin cytoskeleton visualisation (Rh-P staining, confocal microscopy); details: A431 cells, Rh-P staining; for effect on actin cytoskeleton: 30 min
Experimental: Analysis was performed on a Leica SP5 confocal laser scanning microscope, equipped with laser lines: 405 Blue Diode (Excitation wavelength 405 nm for Hoechst 33342) Argon (Excitation wavelength 488 nm for Alexa 488 or EGFP), Helium Neon Laser 1 (Excitation wavelength 543 nm for Tetramethyl-Rhodamine Phalloidin (Rh-P)) and Laser 2 (Excitation wavelength 633 nm for Alexa 647 conjugates). All images presented in this study were obtained using a HCX PL APO 63x 1.4 NA oil immersion objective with Leica Type F immersion oil. Parameters “Gain” and “Off-set” of the individual photomultiplier tubes were adjusted between experiments in order to obtain optimal image acquisition avoiding saturation. For multi-channel image acquisition, the channels were scanned in a sequential recording mode to avoid spectral cross-talk caused by overlapping excitation and/or emission spectra of fluorophores. Acquisition mode “XYZ” and image resolutions (pixels/image) of 512 × 512 or 1024 × 1024 were selected and pinhole size was set to 1 Airy Unit. Depending on acquisition requirements the scan speed was set as either 400 or 700 Hz and for single section images, the same optical section was scanned 3x to generate a line average image. Captured images were then analysed using ImageJ. In some cases (live cell imaging) the same cells were also imaged using […] microscopy (DIC).
A recently described method was utilised giving information on actin architecture at different regions of the cells termed basal and cell body and apex (CBA). For actin staining, HeLa (0.5 × 10^6 cells/well) or A431 (1.0 × 10^6 cells/well) cells in 2.5 mL D-MEM containing 10% FBS were seeded on round borosilicate No.1.5 cover slips in 6 –well plates and allowed to adhere for 24 hr at 37 °C/5% CO2, to reach a confluence of ~80%. The cells were then treated with actin disrupters as described above, washed 3x with PBS and fixed for 15 min at room temperature with 3% PFA in PBS. Cells were then washed 3x with PBS and permeabilised with 0.2% Triton X-100 in PBS at room temperature for 5 min, washed 3x with PBS and stained for cell nuclei with 1.0 µg/ml Hoechst 33342 in PBS and for polymerised actin with 1.0 µg/ml Rh-P in PBS for 15 min at room temperature. The cells were finally washed 3x with PBS and once with distilled water, coverslips were mounted in DAKO mounting medium on glass microscope slides and imaged by confocal microscopy.

[4] = 0.5 µM Lat B, 30 min preincubation, then 2 µM EGFP-R8 for 1 hr with Lat B

| Compound | Normalised Fluoresence Intensity (EGFP-R8) (A431 cells [1]; 4 µM JAS, 45 min preincubation, then 2 µM EGFP-R8 for 1 hr with JAS) | fold increase in fluorescence (EGFP-R8 uptake) (A431 cells [1]; 4 µM JAS, 45 min preincubation, then 2 µM EGFP-R8 for 1 hr with JAS, vs diluent control (0.4% v/v DMSO), P = 0.0025) | effect on EGFP-R8 uptake (A431 cells [2]; 2–4 µM JAS, 45 min preincubation, then 2 µM EGFP-R8 for 1 hr with JAS) | effect on actin organisation ([3]; 0.2 µM JAS, 45 min, basal and CBA regions) | effect on actin organisation ([3]; 2 µM JAS, 45 min) | effect on actin organisation (actin staining) ([3]; 4 µM JAS, 45 min) | fold increase in uptake (EGFP-R8) (A431 cells [1]; 0.5 µM Lat B, 30 min preincubation, then 2 µM EGFP-R8 for 1 hr with Lat B, heparin wash, vs diluent control, P = 0.0045) [fold] | Normalised Fluoresence Intensity (EGFP-R8) (A431 cells [1]; [4]) | effect on cell associated EGFP-R8 fluorescence (A431 cells [2]; [4]) | effect on actin cytoskeleton ([3]; 0.1 μM Lat B, basal and CBA sections) | effect on actin cytoskeleton ([3]; 0.5 μM Lat B) | effect on actin cytoskeleton ([3]; 1 μM Lat B) |
| --- | --- | --- | --- | --- | --- | --- | --- | --- | --- | --- | --- | --- |
| C/C1=C\[C@H](C)C[C@H](C)OC(=O)C[C@H](c2ccc(O)cc2)NC(=O)[C@@H](Cc2c(Br)[nH]c3ccccc23)N(C)C(=O)[C@H](C)NC(=O)[C@@H](C)C1 [JAS, Jasplakinolide] | 4.00 | four | dramatic increase | actin staining was more prominent on the cell periphery | actin staining appeared in large clumps | completely lost from all cells |  |  |  |  |  |  |
| C/C1=C/C(=O)O[C@@H]2C[C@@H](CC[C@H](C)/C=C\CC1)O[C@@](O)([C@@H]1CSC(=O)N1)C2 [Lat B, Latrunculin B] |  |  |  |  |  |  | 6.23 | 6.23 | much higher fluorescence compared to controls | formation of small actin aggregates | these aggregates were extremely prominent | major disruption of the actin organisation |
